Values joined by “and” are separate entries in the source; they are usually repeats but may differ in a detail not shown here. Equal entries are not always repeated.
Experiments:
Format in all cases: in vivo
[1] = tested on: Wistar rats; assay: Morris water maze, place discrimination task, age-related cognitive decline; settings: for Swimming time (choice accuracy, time to find the platform): pellets enriched with 5% dodecanedioic acid for 3 months
Description: (§1) In order to evaluate the impact of a diet enriched with dicarboxylic acids on age-related cognitive decline, 20 Wistar rats of both sexes (half male and half female), 4 months old and 23 months old were used.
(§2) Rats of the same sex were housed (2-3 per cage) in a colony room with a 12:12 light- dark cycle and ad libitum access to food and water. All behavioural testing occurred during the light phase of the light- dark cycle. Body weight was recorded twice a week.
(§3) The rats were divided in two groups of 10. The rats of a group (treated group) were fed with pellets enriched with 5% dodecanedioic acid, the rats of the other group being the control group. The dietary supplementation was carried out for 3 months and in the last week of treatment both groups underwent some tasks in the Morris water maze in order to test their cognitive abilities.
(§4) A large metal pool (180 cm in diameter) filled with opaque water and kept at a constant temperature 24 ± 1°C and a 10 cm platform were used in place discrimination and visual discrimination tasks. A straight plastic alley (10 × 70 cm) was placed in the large pool and used during the straight swim test to estimate swimming ability. A video-camera was used to record the different phases of the experiments.
(§5) Each rat received 1 day of training with three sessions of five platform trials and one probe trial each and a random order of start positions. During the platform trials, the platform was submerged but accessible to the rat, whereas during the probe trials, the platform was collapsed at the bottom of the tank for variable intervals (from 10 to 40 sec) to test the subject's preference for the platform location. The collapsed platform was then returned to its raised position at the end of the probe trial to maintain the same response-reinforcement contingency as in the platform trials. The percentage of time spent in the correct quadrant, the choice accuracy [i.e. the time in seconds to find the platform], and the travelled distance or distance swum to find and climb on the platform [in centimeters] were measured. A a shorter time to find the platform indicate better performance. Higher scores for a percentage of time spent in the correct quadrant reflected better performance. Location of the platform and a set of spatial cues around the tank were changed between the testing periods.
(§6) Data are reported as mean ± SD. Comparison between groups was made by repeated-measures ANOVA. Body weight was used as a covariance to adjust the significance of between-group differences in speed of swimming. P<0.05 was considered as significant.

[2] = tested on: Wistar rats; assay: Morris water maze, repeated acquisition task, age-related cognitive decline; settings: old Wistar rats, 5% dodecanedioic acid pellets for 3 months
Description: as §1, §2, §3, §4
(§7) The training started on the day after the place discrimination task and consisted of 1 day of training with two sessions of 9 trials each. During the first session, the set of extra maze cues, as well as the location of platform, was different from that on the previous place discrimination task. During the second session, the platform was moved to the new position, with the set of external cues remaining the same. Each session consisted of eight platform trials and one probe trial. The measures of platform and probe trials were the same as in the place discrimination task.
as §6

[3] = tested on: Goto-Kakizaki rats; assay: Morris water maze, place discrimination task, diabetes-related cognitive decline; settings: for Travelled distance / time of permanence in the correct quadrant / time to find the platform: Goto-Kakizaki rats
Description: (§8) In order to evaluate the impact of a diet enriched with dicarboxylic acids on diabetes-related cognitive decline, 10 Wistar rats and 20 Goto-Kakizaki rats of both sexes (half male and half female), aged 4 months were used.
(§9) Rats of the same sex were housed (2-3 per cage) in a colony room with a 12:12 light- dark cycle and ad libitum access to food and water. All behavioral testing occurred during the light phase of the light- dark cycle. Body weight was recorded twice a week.
(§10) Ten Goto-Kakizaki rats (treated group) were selected at random from the initial group of 20 animals and were fed with pellets enriched with 5% dodecanedioic acid. The remaining ten Goto-Kakizaki rats formed the control group and received standard Purina chow. A group of ten Wistar rats was also fed with standard Purina chow, as second control group.
(§11) The dietary supplementation was carried out for 1 month and in the last week of treatment the different groups underwent some tasks in the Morris water maze in order to test their cognitive abilities.
as §4, §5, §6

[4] = tested on: Goto-Kakizaki rats; assay: Morris water maze, repeated acquisition task, diabetes-related cognitive decline; settings: 5% dodecanedioic acid pellets for 1 month
Description: as §8, §9, §10, §11, §4, §7
Data are reported as mean ± SD. Comparison between groups was made by repeated-measures ANOVA. […]

[5] = tested on: Goto-Kakizaki rats; assay: Morris water maze, place discrimination task, diabetes-related cognitive decline; settings: average value (mean ± SD, 10 rats), 5% dodecanedioic acid pellets for 1 month, listed as dodecanoic acid
[6] = administered orally, rats, overall conclusion
[7] = individual data per rat, old Wistar rats, 5% dodecanedioic acid pellets for 3 months
[8] = average value (mean ± SD, 10 rats)
[9] = average value (mean ± SD, 10 rats), 5% dodecanedioic acid pellets for 1 month
[10] = individual data per rat, 5% dodecanedioic acid pellets for 1 month

In the case of O=C(O)CCCCCCCCCCC(=O)O [C12, dodecanedioic acid], the “age-related decline in various cognitive functions” value [1, 6] is reported as “ameliorates”, the “time in the correct quadrant” value ([1]; average value (10 rats), old Wistar rats, 5% dodecanedioic acid pellets for 3 months) is reported as 41,70% and the Travelled distance ([1]; average value (mean ± SD, 10 rats), old Wistar rats, 5% dodecanedioic acid pellets for 3 months) is reported as 409,50 cm. The Travelled distance ([1]; average value (mean ± SD, 10 rats), old Wistar rats, 5% dodecanedioic acid pellets for 3 months, listed as dodecanoic acid) was 409.5± 98.6 cm, the “Swimming time (choice accuracy, time to find the platform)” value ([1]; average value (mean ± SD, 10 rats), old Wistar rats) was 19,59 sec and the “Swimming time (choice accuracy, time to find the platform)” value ([1]; average value (mean ± SD, 10 rats), old Wistar rats, listed as dodecanedioic acid) was 19.6 ± 1.6 s. For the same compound, the Swimming time ([1]; individual data per rat, old Wistar rats fed pellets enriched with 5% dodecanedioic acid for 3 months) was 21,8 sec and 18 sec (3×) and 22 sec and 19 sec and 21 sec and 20 sec and 18,5 sec and 19,6 sec, the Travelled distance [1, 7] was 370 cm and 400 cm and 300 cm (2×) and 580 cm and 450 cm and 520 cm and 350 cm and 325 cm and 500 cm and the “time in the correct quadrant” value [1, 7] was 35% (2×) and 50% and 45% and 40% and 42% and 44% and 48% and 37% and 41%. The “time of permanence in the correct quadrant” value (from here on “time of permanence”) ([1]; mean ± SD as given in text, old Wistar rats, 5% dodecanedioic acid pellets for 3 months) was 41.7±5.2 % sec, the “Travelled distance in repeated trials” value [2, 8] was 327,00 cm and the “Travelled distance in repeated trials” value ([2]; average value (mean ± SD, 10 rats), listed as dodecanedioic acid) was 327.0±80.4 cm. For the same compound, the “Travelled distance in repeated trials” value ([2]; individual data per rat) was 400 cm and 300 cm (3×) and 200 cm and 350 cm and 410 cm and 260 cm and 470 cm and 280 cm, the “diabetes-related decline in various cognitive functions” value [3, 6] was “ameliorates” and the Travelled distance [3, 9] was 423,60 cm. The “time of permanence” value [3, 9] was 44,00 sec, the “time to find the platform” value [3, 9] was 23,24 sec and the “time to find the platform” value ([3]; average value (mean ± SD, 10 rats), 5% dodecanedioic acid pellets for 1 month, listed as dodecanedioic acid) was 23.24 ± 2.81 s. The Travelled distance [3, 10] was 306 cm and 418 cm and 511 cm (2×) and 368 cm and 354 cm and 477 cm and 541 cm and 326 cm and 424 cm, the “time of permanence” value [3, 10] was 41 sec (2×) and 49 sec and 50 sec and 46 sec and 39 sec and 47 sec and 45 sec and 44 sec and 38 sec and the “time to find the platform” value ([3]; individual data per rat, pellets enriched with 5% dodecanedioic acid for 1 month) was 18,4 sec and 22,6 sec and 23,4 sec and 25,9 sec and 27 sec and 24 sec and 22,1 sec and 23,5 sec and 26,2 sec and 19,3 sec. For the same compound, the “REPEATED ACQUISITION TASK TRAVELLED DISTANCE” value [4, 8] was 374,10 cm, the “REPEATED ACQUISITION TASK TRAVELLED DISTANCE” value ([4]; average value (mean ± SD, 10 rats), listed as dodecanoic acid) was 374.1±78.23 cm and the “REPEATED ACQUISITION TASK TRAVELLED DISTANCE” value ([4]; individual data per rat) was 403 cm and 300 cm (3×) and 370 cm and 359 cm and 291 cm and 444 cm and 498 cm and 476 cm. It also gave a Travelled distance [5] of 423.6±83.82 cm.

From patent publication EP2085082A1, “Treatment of cognitive decline” (Nutromnia S.R.L., priority 2008, dated 2009)
